Series [1] concerns Sympathetic neurons from superior cervical ganglia (SCG) of newborn rats. The series is described as follows: Sympathetic neuron culture and survival assay (neuronal survival). Particulars: Compounds were tested at 10 μM; rat SCG neurons, NGF deprivation (anti NGF antibody), MTT 24 hours after cell death induction. The format is cell-based. The source says: (§1) The above set out 2 in vitro assays c) and d) involving the determination of mitochondrial cytochrome c release are based on immunochemical methods using the Western blot analysis. Alternatively, said quantitative cytochrome c determinations could be performed by using spectrophotometric means: • I. by recording the difference between reduced and oxidised cytochrome c by dual wavelength double beam spectrophotometry; • by measuring the rather intensive γ or Soret peak in the spectrum of cytochrome c (ε=100 mM^−1 cm^−1) is used for rapid and quantitative determination of the release of cytochrome c from isolated mitochondria.
Cell death is induced at day 4 after plating by exposing the culture to medium containing 10 µg/ml of anti NGF antibody (Boehringer Mannheim Corp., Indianapolis, Ind.) and no NGF or arabinosine, in the presence or absence of piperazine derivatives of carbazole inhibitors according to formula I. 24 hours after cell death induction, determination of cell viability is performed by incubation of the culture for 1 hour, at 37° C. in 0.5 mg/ml of 3-(4,5-dimethyl-thiazol-2-yl)2,5diphenyl tetrazolium bromide (MTT). After incubation in MTT, cells are re-suspended in DMSO, transferred to a 96 MTT plate and cell viability is evaluated by measuring optical density at 590 nm.

Series [2] addresses T1, Bid-induced Bax activation (mitochondria isolated from HeLa cells) (Homo sapiens, UniProt Q07812).
T1 construct: endogenous in cells; host or cells: mitochondria isolated from HeLa cells
Description: Mitochondria cytochrome c release triggered by Bid-induced Bax activation. Particulars: Compounds were tested at 10 μM, 10 nM recombinant Bid. The format is biochemical. How it is done:
d) Effect of Compounds according to formula I onto the Release of Cytochrome c Triggered by Bid-Induced Bax Activation (Mitochondria Cytochrome c Release Triggered by Bid-Induced Bax Activation)
Mitochondria isolated from HeLa cells are incubated for 15 min at 30° C. in […] of KCl buffer in the presence or absence of 10 nM recombinant Bid. The various compounds (10 μM) are pre-incubated for 5 min prior to addition of Bid. Following incubation, mitochondria were centrifuged for 5 min at 13000 g at 4° C. and the supernatant is collected for cytochrome c analysis. Cytochrome c is detected by Western blotting. The cytochrome c bands are scanned and quantified using a Bio-Rad (GS-700 Imaging Densitometer).
as §1

The target of series [3] is T2, recombinant Bax (Human Bax-α), mitochondria from mouse liver (Homo sapiens, UniProt Q07812).
T2 construct: Human Bax-α lacking 20 amino acids at the COOH-terminus; GST (cleaved yes); His-tag (alternative construct); made in house; host or cells: Escherichia coli
Description: In vitro assay for cytochrome c release (mitochondria cytochrome c release triggered by Bax activation). The settings on record: Compounds were tested at 5 μM, 200 nM recombinant Bax. The format is biochemical.
Source text: The cytochrome c bands are scanned and quantified using a Bio-Rad (GS-700 Imaging Densitometer).
as §1

Counter-ions that a name gives are not always drawn.

T1 sequence (Q07812 whole entry): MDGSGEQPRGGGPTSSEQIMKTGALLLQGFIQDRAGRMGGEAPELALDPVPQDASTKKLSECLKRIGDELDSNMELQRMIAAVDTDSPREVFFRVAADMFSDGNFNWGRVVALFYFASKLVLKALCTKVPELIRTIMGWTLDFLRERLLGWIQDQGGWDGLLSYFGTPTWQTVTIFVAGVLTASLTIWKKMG
T2 sequence (Q07812 1-172 limits assumed): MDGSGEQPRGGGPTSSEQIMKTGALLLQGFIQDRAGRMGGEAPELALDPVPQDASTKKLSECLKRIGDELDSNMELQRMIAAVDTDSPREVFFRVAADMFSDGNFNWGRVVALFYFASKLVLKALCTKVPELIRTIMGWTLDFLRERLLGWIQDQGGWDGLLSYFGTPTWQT

Turning to `O=C(CN1CCN(CC2CCCCC2)CC1)Cn1c2ccc(Br)cc2c2cc(Br)ccc21` (as salt: hydrochloride) [Example 109, (±)-1-[4-(cyclohexylmethyl)piperazin-1-yl]-3-(3,6-dibromocarbazol-9-yl)acetone], the melting point is 261 °C (dec.). Turning to `O=C(CN1CCN(CC2CCCCC2)CC1)Cn1c2ccccc2c2cc(-c3ccccc3)ccc21` (as salt: hydrochloride) [Example 111, (±)-1-[4-(Cyclohexylmethyl)piperazin-1-yl]-3-(3-phenylcarbazol-9-yl)acetone], the melting point was 231 °C (dec.). In the case of `OC(CN1CCN(Cc2ccc(F)cc2)CC1)Cn1c2ccccc2c2ccccc21` (racemic) (as salt: HCl) [Example 22, (±)-1-Carbazol-9-yl-3-[4-(4-fluoro-benzyl)-piperazin-1-yl]-propan-2-ol], the melting point was 251 °C (dec.).

On to `OC(CN1CCN(Cc2ccc(F)cc2)CC1)Cn1c2ccccc2c2cc(-c3ccccc3)ccc21` (racemic) (as salt: HCl) [Example 24, (±)-1-[4-(4-Fluoro-benzyl)-piperazin-1-yl]-3-(3-phenyl-carbazol-9-yl)-propan-2-ol], for which the melting point came out at 188 °C. For `N#Cc1ccc2c(c1)c1cc(C#N)ccc1n2CC(O)CN1CCNCC1` (racemic) (as salt: HCl) [Example 25, (±)-9-(2-Hydroxy-3-piperazin-1-yl-propyl)-carbazole-3,6-dicarbonitrile], the melting point was 295 °C (dec.). `OC(CN1CCN(CCCc2ccccc2)CC1)Cn1c2ccccc2c2ccccc21` (racemic) (as salt: HCl) [Example 31, (±)-1-Carbazol-9-yl-3-[4-(3-phenyl-propyl)-piperazin-1-yl]-propan-2-ol] returned a melting point of 265 °C. Regarding `O=C(c1ccccc1)N1CCN(CC(O)Cn2c3ccccc3c3ccccc32)CC1` (racemic) (as salt: HCl) [Example 36, (±)-1-[4-(3-Carbazol-9-yl-2-hydroxy-propyl)-piperazin-1-yl]-1-phenyl-methanone], the melting point turned out to be 153 °C. Same read-out and setting: to `Cc1ccc2c3ccccc3n(CC(O)CN3CCN(Cc4ccccc4)CC3)c2c1` (racemic) (as salt: hydrochloride) [Example 1, (±)-1-(4-Benzyl-piperazin-1-yl)-3-(2-methyl-carbazol-9-yl)-propan-2-ol] belongs 239 °C (dec.); to `OC(CN1CCN(CC2CCCCC2)CC1)Cn1c2ccccc2c2cc(-c3ccccc3)ccc21` (racemic) (as salt: hydrochloride) [Example 66, (±)-1-(4-Cyclohexylmethylpiperazin-1-yl)-3-(3-phenylcarbazol-9-yl)-propan-2-ol], 265 to 270 °C (dec.). With `O=S(=O)(Cc1ccccc1)N1CCN(CC(O)Cn2c3ccc(Br)cc3c3cc(Br)ccc32)CC1` (racemic) (as salt: hydrochloride) [Example 71, (±)-1-[4-(Benzylsulfonyl)piperazin-1-yl]-3-(3,6-dibromo-carbazol-9yl)propan-2-ol], the melting point is 253 °C (dec.). Turning to `OC(CN1CCN(Cc2ccc(Cl)c(Cl)c2)CC1)Cn1c2ccc(Br)cc2c2cc(Br)ccc21` (racemic) (as salt: hydrochloride) [Example 72, (±)-1-(3,6-Dibromo-carbazol-9-yl)-3-[4-(3,4-dichlorobenzyl)piperazin-1-yl]propan-2-ol], the melting point is 287 °C (dec.).

As to `OC(CN1CCN(CC2CCCCC2)CC1)Cn1c2ccc(Cl)cc2c2cc(Cl)ccc21` (racemic) (as salt: hydrochloride) [Example 76, (±)-1-[4-(Cyclohexylmethyl)piperazin-1-yl]-3-(3,6-dichloro-carbazol-9-yl)propan-2-ol], the melting point was 302 °C (dec.). Take `OC(CN1CCN(Cc2ccnc3ccccc23)CC1)Cn1c2ccccc2c2cc(Br)ccc21` (racemic) (as salt: hydrochloride) [Example 106, (±)-1-(3-Bromocarbazol-9-yl)-3-[4-(quinolin-4-ylmethyl)piperazin-1-yl]propan-2-ol]: the melting point is 192 °C (dec.). Turning to `OC(CN1CCN(Cc2ccccc2)CC1)Cn1c2ccc(Br)cc2c2cc(Br)ccc21` (racemic) [Example 6, (±)-1-(4-Benzyl-piperazin-1-yl)-3-(3,6-dibromo-carbazol-9-yl)-propan-2-ol], the melting point lay in the range of 70 to 75 °C. On to `OC(CN1CCN(Cc2ccc(F)cc2)CC1)Cn1c2ccc(Br)cc2c2cc(Br)ccc21` (racemic) [Example 23, (±)-1-(3,6-Dibromo-carbazol-9-yl)-3-[4-(4-fluoro-benzyl)-piperazin-1-yl]-propan-2-ol], for which the “Neuronal Survival (%)” value in series [1] turned out to be 45%. Also, the inhibition at 10 µM in series [2] amounted to 68%. For the same molecule, the inhibition at 5 µM in series [3] is 51%. As for `OC(CN1CCNCC1)Cn1c2ccccc2c2cc(-c3ccccc3)ccc21` (racemic) [Example 27, (±)-1-(3-Phenylcarbazol-9-yl)-3-piperazin-1-yl-propan-2-ol], the “Neuronal Survival (%)” value in series [1] is 40%. The inhibition at 10 µM in series [2] came to 88%. Moreover, in series [3], the inhibition at 5 µM came out at 40%. Regarding `OC(CN1CCN(CC2CCCCC2)CC1)Cn1c2ccc(Br)cc2c2cc(Br)ccc21` (racemic) [Example 45, (±)−1-4-Cyclohexylmethylpiperazin-1-yl)-3-(3,6-dibromo-carbazol-9-yl)-propan-2-ol], in series [1], the “Neuronal Survival (%)” value came out at 60%. Besides, the “Mitochondria Cytochrome c Release Triggered by Bid-Induced Bax Activation (% Inhibition)” value in series [2] amounted to 37%. Regarding `OC(CN1CCN(Cc2ccsc2)CC1)Cn1c2ccc(Br)cc2c2cc(Br)ccc21` (racemic) [Example 60, (±)-1-(3,6-Dibromocarbazol-9-yl)-3-[4-(thien-3-ylmethyl)piperazin-1-yl]propan-2-ol], the “Neuronal Survival (%)” value in series [1] is 40%. Besides, in series [2], the inhibition at 10 µM was found to be 60%.

`COc1ccc(CN2CCN(CC(O)Cn3c4ccc(Br)cc4c4cc(Br)ccc43)CC2)cc1` (racemic) [Example 62, (±)-1-(3,6-Dibromocarbazol-9-yl)-3-[4-(4-methoxybenzyl)piperazin-1-yl]propan-2-ol]: the “Neuronal Survival (%)” value in series [1] is recorded as 30%. Further, the inhibition at 10 µM in series [2] worked out at 99%.

`OC(CN1CCN(CCN2CCOCC2)CC1)Cn1c2ccc(Br)cc2c2cc(Br)ccc21` (racemic) [Example 73, (±)-1-(3,6-Dibromo-carbazol-9-yl)-3-[4-(2-morpholin-4-ethyl)piperazin-1-yl]propan-2-ol]: the “Neuronal Survival (%)” value in series [1] was found to be 30%. The “Mitochondria Cytochrome c Release Triggered by Bid-Induced Bax Activation (% Inhibition)” value in series [2] is on record as 74%. As for `FC(F)(CN1CCNCC1)Cn1c2ccc(Br)cc2c2cc(Br)ccc21` (racemic) [Example 80, (±)-3,6-Dibromo-9-(2,2-difluoro-3-piperazin-1-ylpropyl)-carbazole], the “Neuronal Survival (%)” value in series [1] is recorded as 20%. Moreover, in series [2], the inhibition at 10 µM stood at 73%. Regarding `OC(CN1CCN(CCN2CCOCC2)CC1)Cn1c2ccc(Cl)cc2c2cc(Cl)ccc21` (racemic) [Example 110, (±)-1-(3,6-Dichlorocarbazol-9-yl)-3-[4-(2-morpholin-4-ethyl)piperazin-1-yl]propan-2-ol], in series [1], the “Neuronal Survival (%)” value is recorded as 30%. The “Mitochondria Cytochrome c Release Triggered by Bid-Induced Bax Activation (% Inhibition)” value in series [2] is 87%.

The values are drawn from patent publication US8053436B1, “9-(piperazinylalkyl) carbazoles as bax-modulators” (Merck Serono SA, priority 1999, dated 2011).
